Converted amounts (≈) assume the structure as drawn.
Key:
[1] = system: Escherichia coli; experiment: Ratio of CC3 for Escherichia coli DNA gyrase gyrA S83W mutant to CC3 for Escherichia coli wild-type DNA gyrase
[2] = Inhibition of DNA supercoiling activity of Escherichia coli DNA gyrase
[3] = system: Escherichia coli; experiment: Selectivity ratio of IC50 for Escherichia coli DNA gyrase gyrA A67S mutant to IC50 for Escherichia coli wild-type DNA gyrase
[4] = system: Escherichia coli; experiment: Selectivity index, ratio of IC50 for Escherichia coli Topoisomerase 4 to IC50 for Escherichia coli DNA gyrase
[5] = Inhibition of DNA decatenation activity of Staphylococcus aureus DNA topoisomerase 4
[6] = target: DNA gyrase subunit A (Escherichia coli K-12, UniProt P0AES4, G81C); experiment: Inhibition of DNA supercoiling activity of Escherichia coli DNA gyrase gyrA G81C mutant
[7] = system: Staphylococcus aureus; experiment: Selectivity index, ratio of IC50 for Staphylococcus aureus Topoisomerase 4 to IC50 for Staphylococcus aureus DNA gyrase
[8] = target: DNA gyrase (Staphylococcus aureus, UniProt P0A0K8+P20831); experiment: Inhibition of DNA supercoiling activity of Staphylococcus aureus DNA gyrase; format: protein-complex assay
[9] = system: Escherichia coli; experiment: Selectivity ratio of IC50 for Escherichia coli DNA gyrase gyrA G81C mutant to IC50 for Escherichia coli wild-type DNA gyrase
[10] = target: DNA gyrase subunit A (Escherichia coli K-12, UniProt P0AES4, S83W); experiment: Inhibition of DNA supercoiling activity of Escherichia coli DNA gyrase gyrA S83W mutant
[11] = target: DNA gyrase subunit A (Escherichia coli K-12, UniProt P0AES4, A67S); experiment: Inhibition of DNA supercoiling activity of Escherichia coli DNA gyrase gyrA A67S mutant
[12] = system: Escherichia coli; experiment: Antimicrobial activity against Escherichia coli; format: functional
[13] = system: Escherichia coli; experiment: Selectivity ratio of IC50 for Escherichia coli DNA gyrase gyrA S83W mutant to IC50 for Escherichia coli wild-type DNA gyrase
[14] = system: Escherichia coli; experiment: Ratio of CC3 for Escherichia coli DNA gyrase gyrA A67S mutant to CC3 for Escherichia coli wild-type DNA gyrase
[15] = Inhibition of DNA decatenation activity of Escherichia coli DNA topoisomerase 4
[16] = system: Escherichia coli; experiment: Ratio of CC3 for Escherichia coli DNA gyrase gyrA G81C mutant to CC3 for Escherichia coli wild-type DNA gyrase

Structure (SMILES) | Ratio [1] | IC50 [2] [µM] | Ratio IC50 [3] | Ratio IC50 [4] | IC50 [5] [µM] | IC50 [6] [µM] | Ratio IC50 [7] | IC50 [8] [µM] | Ratio IC50 [9] | IC50 [10] [µM] | IC50 [11] [µM] | MIC [12] [µg/mL] | Ratio IC50 [13] | Ratio [14] | IC50 [15] [µM] | Ratio [16]
CC[C@@H]1CCN(c2c(F)cc3c(=O)c(C(=O)O)cn(C4CC4)c3c2OC)C1 | 6.5 | 0.16 | 0.75 | 10.6 | 0.5 | 1.2 | 2.2 | 1.1 | 7.5 | 1.4 | 0.12 | 0.004 (≈ 0.0107 µM) | 8.8 | 1.5 | 1.7 | 13
O=C(O)c1cn(C2CC2)c2cc(N3CCNCC3)c(F)cc2c1=O [CIPROFLOXACIN] | – | 0.45 | – | – | 8.8 | – | – | – | – | – | – | – | – | – | 15.9 | –
CC[C@@H]1CCN(c2c(F)cn3c(=O)n(N)c(=O)c(C4CC4)c3c2OC)C1 | 3.4 | 11 | 1.7 | 14.8 | 48 | 31 | 1.3 | 36.5 | 2.8 | 67 | 19 | – | 6.1 | 1.5 | 163 | 2.3
CC[C@@H]1CCN(c2c(F)cc3c(=O)n(N)c(=O)n(C4CC4)c3c2C)C1 | 5.6 | 0.95 | 1.3 | 6.3 | 0.88 | 1.7 | 1.8 | 1.6 | 1.8 | 3.8 | 1.2 | – | 4 | 2.5 | 6 | 3.1
CC[C@@H]1CCN(c2c(F)cc3c(=O)n(N)c(=O)n(C4CC4)c3c2OC)C1 | 2.1 | 2.8 | 0.86 | 5.7 | 5.5 | 4.3 | 2.4 | 2.3 | 1.5 | 5.9 | 2.4 | 2.5 (≈ 6.9 µM) | 2.1 | 1.7 | 16 | 2.3

— ChEMBL document CHEMBL1275599, “Comparison of in vitro activities of fluoroquinolone-like 2,4- and 1,3-diones” (Antimicrob Agents Chemother, 2010)
